Measurements: article PMC5554537 (Frontiers in Pharmacology, 2017)
Values joined by “and” are separate entries in the source; they are usually repeats but may differ in a detail not shown here. Equal entries are not always repeated.

Legend:
[1] = in vivo; details: NIH-III nude, mouse, in vivo
Experimental: SN30000, M14 and M18 dosing solutions were prepared fresh in normal saline, filtered through 0.45 μm Acrodisc filters (Pall Life Sciences, Port Washington, NY, United States), protected from light in amber vials, and used within 3 h. Doses are expressed as mg of free base equivalent for SN30000 and M14, and free acid in the case of M18. […] Blood samples were collected from mice at various times by cardiac puncture, seconds after cervical dislocation, into ice-cold tubes containing K2EDTA. These were placed on ice immediately after collection and centrifuged (3,000 g, 3 min) within 10 min to harvest plasma. Plasma and tissues were rapidly frozen in liquid nitrogen before storage at -80°C for subsequent bioanalysis.
(§1) M18 was quantified by absorbance detection with reference to an external standard calibration curve.
Concentration-time data were analyzed by non-compartmental analysis using Phoenix WinNonlin (ver 6.4, Build 6.4.0768 Pharsight, United States); all AUC values were extrapolated to infinity using the linear trapezoidal rule. […] Model fits were further assessed by visual inspection of the residuals and predicted PK.

[2] = Stability in mouse liver homogenates (QC samples); format: physicochemical
Source text: using octa-deuterated internal standards of SN30000, M13 and M14 synthesised as previously reported (Wang et al., 2012). Intra- and inter-day precision (expressed as relative standard deviation (RSD) and accuracy (expressed as percentage of the nominal value) were deter mined by analy sis of replicates (n=6) of low and high quality control (QC) samples on three different days. The lower limit of quantitation (LLOQ) was defined as the lowest concentration providing RSD and accuracy < 20%. Recovery from plasma and liver ho mogenates was tested at the three QC levels. The recoveries were evaluated by comparing extracted samples with blank extracted solutions spiked with analytes of the same amount.
Matrix effects, defined as the change in response due to the presence of other substances in the samples, were evaluated by comparing the analytes diluted into the blank plasma or liver extracted solution with that of the same stock solutions diluted in water. Three different concentration levels (low, medium and high QC) were evaluated by analysing three samples at each level. Accuracy , precision, recovery and matrix effects were all acceptable over the concentration ranges evaluated for plas ma (Supplementary Table 1) and for liver homogenates (Supplementary Table 2).
Stability of the analytes in mouse plasma (Supplementary Table 3) or liver homogenate (Supplementary Table 4) was confirmed during holding of QC samples on ice for up to 2 h under nor mal laboratory lighting, although there was a trend towards loss of SN30000 in plasma samples held in clear microcentrifuge tubes which may reflect the known photosensitivity of the compound (Gu et al., 2014). This loss was reduced by use of red microcentrifuge tubes, and eliminated by black tubes. Stability in both matrices was also confir med for one month storage at -80°C and for three freeze-thaw cycles, while MeOH-deproteinised samples w ere stable for 12 h at 4°C in the autosampler (Supplementary Tables

[3] = in vivo; details: NIH-III, mouse, in vivo, ip
Experimental: SN30000, M14 and M18 dosing solutions were prepared fresh in normal saline, filtered through 0.45 μm Acrodisc filters (Pall Life Sciences, Port Washington, NY, United States), protected from light in amber vials, and used within 3 h. Doses are expressed as mg of free base equivalent for SN30000 and M14, and free acid in the case of M18. […] For evaluation of acute toxicity, mice were observed continuously for 3 h after dosing, and their activity rated on a lethargy score from 0 representing no change in activity to 5 representing animals that were moribund and required culling. For MTD studies, the animals were checked daily for clinical signs of toxicity and body weight change for 2 weeks. In some studies rectal temperature changes after dosing were measured using a BAT-12 digital microprobe thermometer (Physitemp Instruments, Clifton, NJ, United States) at the times specified in the figures. Blood samples were collected from mice at various times by cardiac puncture, seconds after cervical dislocation, into ice-cold tubes containing K2EDTA. These were placed on ice immediately after collection and centrifuged (3,000 g, 3 min) within 10 min to harvest plasma. Plasma and tissues were rapidly frozen in liquid nitrogen before storage at -80°C for subsequent bioanalysis.
Concentration-time data were analyzed by non-compartmental analysis using Phoenix WinNonlin (ver 6.4, Build 6.4.0768 Pharsight, United States); all AUC values were extrapolated to infinity using the linear trapezoidal rule. A compartmental model for plasma PK after dosing with SN30000 or M14 was fitted using Phoenix NLME v1.3 with random effects on the metabolite volumes of distribution, and temperature effects based on the observed body temperature at the last measurement time. Temperature effects were added or removed until there was no significant change in the log likelihood. Model fits were further assessed by visual inspection of the residuals and predicted PK.

[4] = in vivo; details: NIH-III, mouse, in vivo, ip, 186 mg/kg
Experimental: as §1
Concentration-time data were analyzed by non-compartmental analysis using Phoenix WinNonlin (ver 6.4, Build 6.4.0768 Pharsight, United States); all AUC values were extrapolated to infinity using the linear trapezoidal rule.
SN30000, M14 and M13 were quantified by LC-MS/MS using stable isotope internal standards, while M18 was quantified by absorbance detection using external standard calibration curves.

[5] = target: T1, mouse brain acetylcholinesterase (Mus musculus, UniProt P21836); assay: biochemical; details: mouse brain homogenate, 37°C
T1 construct: from tissue; host or cells: mouse brain homogenate
T1 sequence (P21836 32-614): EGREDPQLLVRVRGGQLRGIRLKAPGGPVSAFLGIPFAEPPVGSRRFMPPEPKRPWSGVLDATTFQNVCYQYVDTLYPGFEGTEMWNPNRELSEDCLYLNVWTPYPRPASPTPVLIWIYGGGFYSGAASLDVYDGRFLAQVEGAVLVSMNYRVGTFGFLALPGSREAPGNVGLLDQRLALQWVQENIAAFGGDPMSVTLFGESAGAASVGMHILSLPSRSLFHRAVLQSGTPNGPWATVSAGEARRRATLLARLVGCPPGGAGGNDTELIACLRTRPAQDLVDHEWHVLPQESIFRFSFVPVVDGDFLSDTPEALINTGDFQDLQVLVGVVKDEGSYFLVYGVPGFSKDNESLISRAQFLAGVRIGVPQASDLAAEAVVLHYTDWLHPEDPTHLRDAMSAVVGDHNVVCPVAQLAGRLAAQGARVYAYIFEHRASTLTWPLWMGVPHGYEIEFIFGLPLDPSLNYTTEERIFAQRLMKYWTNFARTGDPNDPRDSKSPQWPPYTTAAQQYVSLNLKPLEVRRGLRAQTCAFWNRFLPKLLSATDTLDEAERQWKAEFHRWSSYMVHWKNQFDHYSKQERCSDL
Experimental: TABLE 10: Inhibition of mouse brain acetylcholinesterase activitya by SN30000 and related compounds […]
aThe acetylcholinesterase inhibition assay is based on Obregon et al., 2005. Mouse brain homogenate was prepared in potassium phosphate buffer (100 mM, pH 7.4), which was pre-incubated with dithiobisnitrobenzoate (final concentration 1 mM) at 37°C for 10 min. After adding acetylthiocholine (final concentration 0.6 mM), the formation of 5-thio-2-nitrobenzoate was measured by monitoring absorbance (Spectramax- M2 spectrophotometer) at 412 nm every 30 s for 10 min. Negative controls (DMSO or saline) and positive control […]
IC50 values are based on 3-4 deter minations per compound.

[6] = liver homogenate deproteinised in 3 vol MeOH, 12 h autosampler at 4°C, nominal SN30000 0.5, M14 0.25, M13 0.1 µM
[7] = liver homogenate deproteinised in 3 vol MeOH, 12 h autosampler at 4°C, nominal SN30000 5, M14 2.5, M13 1 µM
[8] = liver homogenate deproteinised in 3 vol MeOH, 12 h autosampler at 4°C, nominal SN30000 50, M14 25, M13 10 µM
[9] = liver homogenate, 1 month at -80°C, nominal SN30000 0.5, M14 0.25, M13 0.1 µM
[10] = liver homogenate, 1 month at -80°C, nominal SN30000 5, M14 2.5, M13 1 µM
[11] = liver homogenate, 1 month at -80°C, nominal SN30000 50, M14 25, M13 10 µM
[12] = liver homogenate, 1h on ice, clear tubes, nominal SN30000 0.5, M14 0.25, M13 0.1 µM
[13] = liver homogenate, 1h on ice, clear tubes, nominal SN30000 5, M14 2.5, M13 1 µM
[14] = liver homogenate, 1h on ice, clear tubes, nominal SN30000 50, M14 25, M13 10 µM
[15] = liver homogenate, 2h on ice, nominal SN30000 0.5, M14 0.25, M13 0.1 µM
[16] = liver homogenate, 2h on ice, nominal SN30000 5, M14 2.5, M13 1 µM
[17] = liver homogenate, 2h on ice, nominal SN30000 50, M14 25, M13 10 µM
[18] = liver homogenate, three freeze-thaw cycles, nominal SN30000 0.5, M14 0.25, M13 0.1 µM
[19] = liver homogenate, three freeze-thaw cycles, nominal SN30000 5, M14 2.5, M13 1 µM
[20] = liver homogenate, three freeze-thaw cycles, nominal SN30000 50, M14 25, M13 10 µM
[21] = i.p. SN30000 186 mg/kg, plasma, non-tumour-bearing mice
[22] = Elimination half-life, i.p. SN30000 186 mg/kg, all tissues except tumors
[23] = Terminal T1/2, i.p. SN30000 186 mg/kg, HT29 tumour, tumour-bearing mice
[24] = Terminal T1/2, i.p. SN30000 186 mg/kg, brain, non-tumour-bearing mice
[25] = Terminal T1/2, i.p. SN30000 186 mg/kg, liver, HT29 tumour-bearing mice
[26] = Terminal T1/2, i.p. SN30000 186 mg/kg, liver, non-tumour-bearing mice
[27] = Terminal T1/2, i.p. SN30000 186 mg/kg, plasma, HT29 tumour-bearing mice
[28] = Terminal T1/2, i.p. SN30000 186 mg/kg, plasma, non-tumour-bearing mice

SMILES: [O-][n+]1nc(CCCN2CCOCC2)nc2cc3c(cc21)CCC3 [M14]
- AUC ([1]; iv, 1.86 mg/kg): 0.042 µM·h
- half-life ([1]; iv, 1.86 mg/kg): 12.3 min
- AUC ([1]; iv, 18.6 mg/kg): 0.6 µM·h
- half-life ([1]; iv, 18.6 mg/kg): 28.5 min
- AUC ([1]; iv, 78.3 mg/kg): 11.6 µM·h
- half-life ([1]; iv, 78.3 mg/kg): 31.5 min
- Bias [2, 6]: 3.86%
- Measured conc [2, 6]: 0.26 µM
- Bias [2, 7]: 5.73%
- Measured conc [2, 7]: 2.64 µM
- Bias [2, 8]: 5.22%
- Measured conc [2, 8]: 26.30 µM
- Bias [2, 9]: 1.76%
- Measured conc [2, 9]: 0.25 µM
- Bias [2, 10]: 4.04%
- Measured conc [2, 10]: 2.35 µM
- Bias [2, 11]: 5.13%
- Measured conc [2, 11]: 23.54 µM
- Bias [2, 12]: 5.21%
- Measured conc [2, 12]: 0.26 µM
- Bias [2, 13]: 1.78%
- Measured conc [2, 13]: 2.54 µM
- Bias [2, 14]: 3.05%
- Measured conc [2, 14]: 25.76 µM
- Bias [2, 15]: 8.20%
- Measured conc [2, 15]: 0.27 µM
- Bias [2, 16]: 9.32%
- Measured conc [2, 16]: 2.73 µM
- Bias [2, 17]: 0.75%
- Measured conc [2, 17]: 25.19 µM
- Bias [2, 18]: -4.84%
- Measured conc [2, 18]: 0.24 µM
- Bias [2, 19]: -5.62%
- Measured conc [2, 19]: 2.36 µM
- Bias [2, 20]: 5.39%
- Measured conc [2, 20]: 26.35 µM
- AUC ([3]; 1.86 mg/kg): 0.02 µM·h
- Cmax ([3]; 1.86 mg/kg): 0.053 µM
- half-life ([3]; 1.86 mg/kg): 29.5 min
- AUC ([3]; 18.6 mg/kg): 0.38 µM·h
- Cmax ([3]; 18.6 mg/kg): 1.11 µM
- half-life ([3]; 18.6 mg/kg): 32.5 min
- AUC ([3]; 78.3 mg/kg): 7.52 µM·h
- Cmax ([3]; 78.3 mg/kg): 13.3 µM
- half-life ([3]; 78.3 mg/kg): 20.1 min
- AUC ([3]; 92.8 mg/kg): 10.8 µM·h
- Cmax ([3]; 92.8 mg/kg): 16.8 µM
- half-life ([3]; 92.8 mg/kg): 22.9 min
- AUC ([3]; 186 mg/kg): 24.6 µM·h
- Cmax ([3]; 186 mg/kg): 23 µM
- half-life ([3]; 186 mg/kg): 58.1 min
- Tmax [4]: ≤ 5 min
- Cmax [4, 21]: 36.1 ± 5.5 µM
- half-life [4, 22]: ~30 min
- half-life [4, 23]: 94.8 min
- half-life [4, 24]: 32.1 min
- half-life [4, 25]: 42.7 min
- half-life [4, 26]: 40.5 min
- half-life [4, 27]: 40.6 min
- half-life [4, 28]: 37.8 min
- IC50 [5]: 58.3 µM and 58 µM

SMILES: [O-][n+]1nc(CCCN2CCOCC2)[n+]([O-])c2cc3c(cc21)CCC3 [SN30000, 3-(3-Morpholinopropyl)-7,8-dihydro-6H-indeno[5,6-e][1,2,4]triazine 1,4-dioxide]
- clearance ([1]; 78 mg/kg): 84 mL/min/kg
- clearance ([1]; iv): 83.3 to 167 mL/min/kg
- AUC ([1]; iv, 1.86 mg/kg): 0.53 µM·h
- Cmax ([1]; iv, 1.86 mg/kg): 1.86 ± 0.13 µM
- Vd ([1]; iv, 1.86 mg/kg): 1.52 L/kg
- clearance ([1]; iv, 1.86 mg/kg): 177 mL/min/kg
- half-life ([1]; iv, 1.86 mg/kg): 8.03 min
- AUC ([1]; iv, 18.6 mg/kg): 8.1 µM·h
- Cmax ([1]; iv, 18.6 mg/kg): 25.2 ± 0.27 µM
- Vd ([1]; iv, 18.6 mg/kg): 1.29 L/kg
- clearance ([1]; iv, 18.6 mg/kg): 116 mL/min/kg
- half-life ([1]; iv, 18.6 mg/kg): 27.6 min
- AUC ([1]; iv, 78.3 mg/kg): 47 µM·h
- Cmax ([1]; iv, 78.3 mg/kg): 81.9 ± 2.71 µM
- Vd ([1]; iv, 78.3 mg/kg): 2.24 L/kg
- clearance ([1]; iv, 78.3 mg/kg): 84 mL/min/kg
- half-life ([1]; iv, 78.3 mg/kg): 23.9 min
- Bias [2, 6]: 3.36%
- Measured conc [2, 6]: 0.52 µM
- Bias [2, 7]: 2.86%
- Measured conc [2, 7]: 5.14 µM
- Bias [2, 8]: 6.75%
- Measured conc [2, 8]: 53.37 µM
- Bias [2, 9]: 1.98%
- Measured conc [2, 9]: 0.52 µM
- Bias [2, 10]: 4.40%
- Measured conc [2, 10]: 4.77 µM
- Bias [2, 11]: 4.71%
- Measured conc [2, 11]: 47.06 µM
- Bias [2, 12]: 2.46%
- Measured conc [2, 12]: 0.51 µM
- Bias [2, 13]: 4.72%
- Measured conc [2, 13]: 5.24 µM
- Bias [2, 14]: 6.87%
- Measured conc [2, 14]: 53.43 µM
- Bias [2, 15]: -3.26%
- Measured conc [2, 15]: 0.48 µM
- Bias [2, 16]: 2.72%
- Measured conc [2, 16]: 5.14 µM
- Bias [2, 17]: 1.20%
- Measured conc [2, 17]: 50.60 µM
- Bias [2, 18]: -10.74%
- Measured conc [2, 18]: 0.45 µM
- Bias [2, 19]: -8.29%
- Measured conc [2, 19]: 4.59 µM
- Bias [2, 20]: 4.78%
- Measured conc [2, 20]: 52.39 µM
- bioavailability [3]: ~30%
- AUC ([3]; 1.86 mg/kg): 0.17 µM·h
- Cmax ([3]; 1.86 mg/kg): 0.59 µM
- half-life ([3]; 1.86 mg/kg): 20.8 min
- AUC ([3]; 18.6 mg/kg): 2.1 µM·h
- Cmax ([3]; 18.6 mg/kg): 6.8 µM
- half-life ([3]; 18.6 mg/kg): 25 min
- bioavailability ([3]; 78 mg/kg): ~70%
- AUC ([3]; 78.3 mg/kg): 31.5 µM·h
- Cmax ([3]; 78.3 mg/kg): 60.8 µM
- half-life ([3]; 78.3 mg/kg): 16.1 min
- AUC ([3]; 92.8 mg/kg): 49.2 µM·h
- Cmax ([3]; 92.8 mg/kg): 77.9 µM
- half-life ([3]; 92.8 mg/kg): 19.7 min
- AUC ([3]; 186 mg/kg): 155 µM·h
- Cmax ([3]; 186 mg/kg): 229 µM
- half-life ([3]; 186 mg/kg): 42.5 min
- Tmax [4]: ≤ 5 min
- Cmax ([4]; i.p. SN30000 186 mg/kg, plasma, HT29 tumour-bearing mice): 217 ± 18 µM
- Cmax [4, 21]: 210 ± 9 µM
- half-life [4, 22]: ~30 min
- half-life [4, 23]: 36.2 min
- half-life [4, 24]: 26.4 min
- half-life [4, 25]: 35.7 min
- half-life [4, 26]: 44.3 min
- half-life [4, 27]: 33.9 min
- half-life [4, 28]: 32.7 min
- IC50 [5]: 131 µM
